Test results taken from PubChem BioAssay AID330 (DTP/NCI, 2004).
“And” between values parts separate entries of the source, which are not always exact repeats. Equal values may be shown once. Toxic doses and inconclusive results are not listed. The calls were made as follows: active = survival T/C of 150% or more; inactive = T/C below 125% in these data.

System: P388 leukemia ip, CD2F1 mice, survival T/C
Test: NCI In Vivo Anticancer Drug Screen. Data for tumor model P388 Leukemia (intraperitoneal) in CD2F1 (CDF1) mice
Details: endpoint: median survival time, higher = longer survival
How it was run: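 Mice carrying the transplanted tumor received test compound or vehicle. Survival was recorded in each group, and the value is the treated-group measurement divided by that of the vehicle-treated control group.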

[1] = dose: 50.0 mg/kg/injection, schedule: Q01DX005 (ip), vehicle: saline
[2] = dose: 100.0 mg/kg/injection, schedule: Q01DX005 (ip), vehicle: saline
[3] = dose: 50.0 mg/kg/injection, schedule: Q01DX009 (ip), vehicle: saline with Tween-80
[4] = dose: 100.0 mg/kg/injection, schedule: Q01DX009 (ip), vehicle: saline with Tween-80
[5] = dose: 60.0 mg/kg/injection, schedule: Q01DX005 (ip), vehicle: saline with Tween-80
[6] = dose: 50.0 mg/kg/injection, schedule: Q01DX009 (ip), vehicle: Klucel (hydroxypropylcellulose) (HPC)
[7] = dose: 100.0 mg/kg/injection, schedule: Q01DX009 (ip), vehicle: Klucel (hydroxypropylcellulose) (HPC)
[8] = dose: 200.0 mg/kg/injection, schedule: Q01DX009 (ip), vehicle: Klucel (hydroxypropylcellulose) (HPC)
[9] = dose: 100.0 mg/kg/injection, schedule: Q01DX001 (ip), vehicle: Klucel (hydroxypropylcellulose) (HPC)
[10] = dose: 400.0 mg/kg/injection, schedule: Q01DX001 (ip), vehicle: Klucel (hydroxypropylcellulose) (HPC)
[11] = dose: 25.0 mg/kg/injection, schedule: Q01DX009 (ip), vehicle: saline
[12] = dose: 50.0 mg/kg/injection, schedule: Q01DX009 (ip), vehicle: saline
[13] = dose: 100.0 mg/kg/injection, schedule: Q01DX009 (ip), vehicle: saline

Measured: T/C

Cn1ccc(N)nc1=O
inactive: [1] 101 % of control | [2] 107 % of control | dose: 200.0 mg/kg/injection, schedule: Q01DX005 (ip), vehicle: saline 104 % of control

N#CS.N=C=S.O=N[O-].[Co+3].[NH2-].[NH2-].[NH2-].[NH2-]
inactive: dose: 25.0 mg/kg/injection, schedule: Q01DX009 (ip), vehicle: saline with Tween-80 102 % of control | [3] 89 % of control | [4] 108 % of control

O=c1cccccc1Cl
inactive: [3] 104 % of control | [4] 101 % of control

CCc1nc(N)nc(N)c1-c1ccc(NCCCN)c([N+](=O)[O-])c1
inactive: dose: 30.0 mg/kg/injection, schedule: Q01DX005 (ip), vehicle: saline with Tween-80 106 % of control | [5] 108 % of control and 110 % of control

CC(=O)c1cc[n+](Cc2cc3ccccc3nc2Br)cc1
inactive: dose: 12.5 mg/kg/injection, schedule: Q04DX002 (ip), vehicle: saline 101 % of control | dose: 25.0 mg/kg/injection, schedule: Q04DX002 (ip), vehicle: saline 102 % of control | dose: 50.0 mg/kg/injection, schedule: Q04DX002 (ip), vehicle: saline 101 % of control

Brc1ccc(-c2cc(-c3cccs3)cc(-c3ccccc3)n2)cc1
inactive: [6] 100 % of control | [7] 108 % of control | [8] 101 % of control

c1ccc2c(NCCCNCCCNc3c4ccccc4nc4ccccc34)c3ccccc3nc2c1
inactive: dose: 0.63 mg/kg/injection, schedule: Q01DX009 (ip), vehicle: other 112 % of control | dose: 1.25 mg/kg/injection, schedule: Q01DX009 (ip), vehicle: other 102 % of control and 118 % of control | dose: 2.5 mg/kg/injection, schedule: Q01DX009 (ip), vehicle: other 112 % of control | dose: 5.0 mg/kg/injection, schedule: Q01DX009 (ip), vehicle: other 118 % of control | dose: 10.0 mg/kg/injection, schedule: Q01DX009 (ip), vehicle: other 110 % of control

S=C(S)C1=C(NCCCCCCNC2=C(C(=S)S)CCC2)CCC1
inactive: [9] 100 % of control | dose: 200.0 mg/kg/injection, schedule: Q01DX001 (ip), vehicle: Klucel (hydroxypropylcellulose) (HPC) 94 % of control | [10] 100 % of control

Cn1nccc1N
inactive: [11] 117 % of control | [12] 108 % of control

CNC/C(Cl)=N/S(=O)(=O)c1ccc(C)cc1
inactive: [5] 99 % of control | dose: 120.0 mg/kg/injection, schedule: Q01DX005 (ip), vehicle: saline with Tween-80 99 % of control | dose: 240.0 mg/kg/injection, schedule: Q01DX005 (ip), vehicle: saline with Tween-80 105 % of control

CCOC1OCN(C2CCCCC2)CC1(C)C (stereo unspecified)
inactive: [3] 109 % of control | dose: 200.0 mg/kg/injection, schedule: Q01DX009 (ip), vehicle: saline with Tween-80 110 % of control

CCCCCOC(=O)c1ccccc1OP(=O)(N(C)C)N(C)C
inactive: [1] 103 % of control | [2] 110 % of control

NC12CC3CC(CC(C3)C1)C2
inactive: dose: 25.0 mg/kg/injection, schedule: Q01DX005 (ip), vehicle: saline with Tween-80 97 % of control | dose: 50.0 mg/kg/injection, schedule: Q01DX005 (ip), vehicle: saline with Tween-80 92 % of control | dose: 100.0 mg/kg/injection, schedule: Q01DX005 (ip), vehicle: saline with Tween-80 88 % of control

O=C(NC(=S)Nc1ccccc1)c1ccccc1
inactive: dose: 9.4 mg/kg/injection, schedule: Q01DX009 (ip), vehicle: Klucel (hydroxypropylcellulose) (HPC) 106 % of control | dose: 18.75 mg/kg/injection, schedule: Q01DX009 (ip), vehicle: Klucel (hydroxypropylcellulose) (HPC) 101 % of control | dose: 37.5 mg/kg/injection, schedule: Q01DX009 (ip), vehicle: Klucel (hydroxypropylcellulose) (HPC) 94 % of control | dose: 75.0 mg/kg/injection, schedule: Q01DX009 (ip), vehicle: Klucel (hydroxypropylcellulose) (HPC) 96 % of control

O=C(Nc1ccc(S(=O)(=O)O)cc1)c1ccc([N+](=O)[O-])cc1
inactive: [13] 100 % of control | dose: 400.0 mg/kg/injection, schedule: Q01DX009 (ip), vehicle: saline 109 % of control

CC1(C)CCCC12CCN1CCC([N+](=O)[O-])C12 (stereo unspecified)
inactive: dose: 11.5 mg/kg/injection, schedule: Q04DX003 (ip), vehicle: saline with Tween-80 100 % of control | dose: 23.0 mg/kg/injection, schedule: Q04DX003 (ip), vehicle: saline with Tween-80 108 % of control | dose: 46.0 mg/kg/injection, schedule: Q04DX003 (ip), vehicle: saline with Tween-80 100 % of control | dose: 92.0 mg/kg/injection, schedule: Q04DX003 (ip), vehicle: saline with Tween-80 108 % of control

NC(=O)CN1CCN(c2ccnc3cc(Cl)ccc23)CC1
inactive: dose: 25.0 mg/kg/injection, schedule: Q04DX002 (ip), vehicle: saline with Tween-80 101 % of control | dose: 50.0 mg/kg/injection, schedule: Q04DX002 (ip), vehicle: saline with Tween-80 99 % of control | dose: 100.0 mg/kg/injection, schedule: Q04DX002 (ip), vehicle: saline with Tween-80 99 % of control and 103 % of control

CC(O)CC1(c2ccccc2)CNC(=O)NC1=O (stereo unspecified)
inactive: dose: 25.0 mg/kg/injection, schedule: Q01DX001 (ip), vehicle: Klucel (hydroxypropylcellulose) (HPC) 94 % of control | dose: 50.0 mg/kg/injection, schedule: Q01DX001 (ip), vehicle: Klucel (hydroxypropylcellulose) (HPC) 94 % of control | [9] 99 % of control and 106 % of control | [10] 92 % of control

C=CCOCC1CO1 (stereo unspecified)
inactive: dose: 12.5 mg/kg/injection, schedule: Q01DX009 (ip), vehicle: saline 106 % of control | [11] 97 % of control | [12] 103 % of control | dose: 50.0 mg/kg/injection, schedule: Q04DX003 (ip), vehicle: saline with Tween-80 100 % of control | [13] 100 % of control | dose: 100.0 mg/kg/injection, schedule: Q04DX003 (ip), vehicle: saline with Tween-80 90 % of control | dose: 132.0 mg/kg/injection, schedule: Q04DX003 (ip), vehicle: saline with Tween-80 109 % of control | dose: 200.0 mg/kg/injection, schedule: Q01DX009 (ip), vehicle: saline 100 % of control | dose: 200.0 mg/kg/injection, schedule: Q04DX003 (ip), vehicle: saline with Tween-80 109 % of control | dose: 300.0 mg/kg/injection, schedule: Q04DX003 (ip), vehicle: saline with Tween-80 122 % of control

CN(C)c1cc(N(C)C)c2cc(C#N)ccc2n1
inactive: [6] 99 % of control | [7] 98 % of control | [8] 107 % of control

NCC(O)c1cccc(C(F)(F)F)c1 (stereo unspecified)
inactive: [12] 92 % of control | [13] 100 % of control

O=c1oc2c(c(=O)n1-c1ccccc1)CC1(CCCCC1)C2
inactive: [6] 103 % of control | [7] 113 % of control | [8] 105 % of control

O=S(=O)(O)c1ccc(/C2=c3\cc/c([n-]3)=C(\c3ccc(S(=O)(=O)O)cc3)c3ccc([n-]3)/C(c3ccc(S(=O)(=O)O)cc3)=c3/cc/c([n-]3)=C(\c3ccc(S(=O)(=O)O)cc3)c3ccc2[n-]3)cc1.[Zn]
inactive: dose: 0.98 mg/kg/injection, schedule: Q01DX009 (ip), vehicle: saline with Tween-80 103 % of control and 111 % of control | dose: 1.95 mg/kg/injection, schedule: Q01DX009 (ip), vehicle: saline with Tween-80 100 % of control and 104 % of control | dose: 3.9 mg/kg/injection, schedule: Q01DX009 (ip), vehicle: saline with Tween-80 99 % of control and 114 % of control | dose: 7.8 mg/kg/injection, schedule: Q01DX009 (ip), vehicle: saline with Tween-80 114 % of control | dose: 15.62 mg/kg/injection, schedule: Q01DX009 (ip), vehicle: saline with Tween-80 100 % of control and 112 % of control
